PubChem BioAssay AID2060500 (Molecular Pharmacology Branch, DTP, NCI, 2025)

System: 596521-263-R-J1-PDC complex spheroids, viability % of control
Assay: Anticancer human tumor 596521-263-R-J1-PDC patient-derived soft tissue sarcoma cell line growth inhibition [GQUAD]
Settings: for IC50: curve of first compound; for viability, T/C: stronger effect = lower value
Description: DNA G-quadruplex Stabilizer Agents in Combinations in Complex Spheroids
A high-throughput screen of multi-cell type tumor spheroids was designed to identify active combinations of DNA G-quadruplex stabilizer agents and targeted small molecules. Complex spheroids include a stromal component modeled by human endothelial cells (HUVEC) and fibroblasts modeled by human mesenchymal stem cells (MSCs). The concentration ranges selected for each drug and investigational agent were based upon clinically achievable concentrations if the clinical Cmax of the agent was known.
Compounds. The drugs and investigational agents: pidnarulex (CX-5461; NSC782164), APTO-253 (NSC789042), BRACO-19 (NSC847499), peposertib (NSC802822), ceralasertib (NSC780249), elimusertib (NSC800525), camonsertib (NSC841442), AZD-1390 (NSC803789), olaparib (NSC753686), talazoparib (NSC767125), ART-558 (NSC835418), sotorasib (NSC818433), MRTX-1133 (NSC836407), SN-38 (NSC673596), topotecan (NSC609699), etoposide (NSC141540), doxorubicin (NSC123127), gemcitabine (NSC613327), 5-fluorouracil (NSC19893), paclitaxel (NSC125973), vemurafenib (NSC761431), panobinostat (NSC761190), R-306465 (JNJ-16241199; NSC773264), adavosertib (NSC754352), TP-3654 (NSC805149), carboplatin (NSC241240), KSQ-4279 (NSC840948), and staurosporine (NSC755774) were obtained from the National Cancer Institute (NCI) Developmental Therapeutics Program Chemical Repository (34). The FDA-approved anticancer drug set is available from the NCI Developmental Therapeutics Program. […] The stock solutions were prepared in dimethyl sulfoxide (DMSO, Sigma-Aldrich, St. Louis, MO, cat. D2650) at 800-fold the tested concentration and stored at -70 degrees C prior to their use. All drugs and investigational agents were tested over a range starting from a high concentration at or near the clinical Cmax and decreasing in half-log increments. If the clinical Cmax for an agent had not been determined, the highest concentration tested was 10 microM.
2.3 Cell Culture. All cells were maintained in an incubator at 37 degrees C and 5% CO2 with 95% humidity. The PDC lines were cultured according to standard operating procedures established by the NCI PDMR. All PDCs were thawed and cultured in Matrigel-coated flasks prepared with a working solution of 1X Ham's F-12 nutrient mix, without supplementation (Invitrogen, cat. 11765054), 100 U/mL penicillin-streptomycin (Invitrogen, cat. 15140122), and 2.5% Matrigel (Corning Inc., cat. 354248) for the first three passages. The 857933-349-R-J2-PDC line was cultured in 6C/Colon 1B media, which includes advanced DMEM/F-12 (Thermo Fisher Scientific, cat. 12634028), 10 mM HEPES (Thermo Fisher Scientific, cat. 15630080), 1X GlutaMAX supplement (Thermo Fisher Scientific, cat. 35050061), 0.1 mg/mL primocin (InvivoGen, cat. ant-pm-2), 10% defined fetal bovine serum, heat inactivated (HyClone Laboratories Inc., cat. SH30070.03HI), 50% L-WRN conditioned media (ATCC, cat. CRL-3276), 1.25 mM N-Acetyl-L-cysteine (Sigma-Aldrich, cat. A9165), 10 mM nicotinamide (Sigma-Aldrich, cat. N0636), 1X B-27 supplement (Thermo Fisher Scientific, cat. 17504044), 1X N-2 supplement (Thermo Fisher Scientific, cat. 17502048), 10 microM Y-27632 dihydrochloride (Tocris Bioscience, cat. 1254), and 50 ng/mL human EGF recombinant protein (Thermo Fisher Scientific, cat. PHG0311). The 485176-168-R4-J1-PDC line was cultured in Panc media, which includes all 6C/Colon 1B media components plus 100 ng/mL human FGF-10 (Thermo Fisher Scientific, cat. 100-26), 500 nM SB-431542 (Selleckchem, cat. S1067), and gastrin (Tocris, cat. 3006).
[…]

[1] = second compound 0.0316 µM, first compound 0.0316 µM
[2] = second compound 0.0316 µM, first compound 0.1 µM
[3] = second compound 0.0316 µM, first compound 0.316 µM
[4] = second compound 0.0316 µM, first compound 1 µM
[5] = second compound 0.0316 µM, first compound 3.16 µM
[6] = second compound 0.0316 µM, first compound 10 µM
[7] = second compound 0.1 µM, first compound 0.0316 µM
[8] = second compound 0.1 µM, first compound 0.1 µM
[9] = second compound 0.1 µM, first compound 0.316 µM
[10] = second compound 0.1 µM, first compound 1 µM
[11] = second compound 0.1 µM, first compound 3.16 µM
[12] = second compound 0.1 µM, first compound 10 µM
[13] = second compound 0.316 µM, first compound 0.0316 µM
[14] = second compound 0.316 µM, first compound 0.1 µM
[15] = second compound 0.316 µM, first compound 0.316 µM
[16] = second compound 0.316 µM, first compound 1 µM
[17] = second compound 0.316 µM, first compound 3.16 µM
[18] = second compound 0.316 µM, first compound 10 µM
[19] = second compound 1 µM, first compound 0.0316 µM
[20] = second compound 1 µM, first compound 0.1 µM
[21] = second compound 1 µM, first compound 0.316 µM
[22] = second compound 1 µM, first compound 1 µM
[23] = second compound 1 µM, first compound 3.16 µM
[24] = second compound 1 µM, first compound 10 µM
[25] = second compound 3.16 µM, first compound 0.0316 µM
[26] = second compound 3.16 µM, first compound 0.1 µM
[27] = second compound 3.16 µM, first compound 0.316 µM
[28] = second compound 3.16 µM, first compound 1 µM
[29] = second compound 3.16 µM, first compound 3.16 µM
[30] = second compound 3.16 µM, first compound 10 µM
[31] = second compound 10 µM, first compound 0.0316 µM
[32] = second compound 10 µM, first compound 0.1 µM
[33] = second compound 10 µM, first compound 0.316 µM
[34] = second compound 10 µM, first compound 1 µM
[35] = second compound 10 µM, first compound 3.16 µM
[36] = second compound 10 µM, first compound 10 µM
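Note: spheroids exposed to drugs for 7 days before viability reading.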

`CC1COCCN1c1cc(C2(O)CC3CCC(C2)O3)c2cnn(-c3ccn[nH]3)c2n1` (centres undefined) + Cc1cnc(CNC(=O)c2c(=O)c3ccc(N4CCCN(C)CC4)nc3n3c2sc2ccccc23)cn1 showed an IC50 (second compound 0.0316 µM) of 211 nM, an IC50 (second compound 0.1 µM) of 115 nM and an IC50 (second compound 0.316 µM) of 158 nM. For the same compound, the IC50 (second compound 1 µM) was 63.7 nM, the IC50 (second compound 3.16 µM) was < 31.6 nM and the IC50 (second compound 10 µM) was < 31.6 nM. It also gave a viability, T/C [1] of 65.1%, a viability, T/C [2] of 60.9% and a viability, T/C [3] of 42.7%. For the same compound, the viability, T/C [4] was 34.6%, the viability, T/C [5] was 25.5% and the viability, T/C [6] was 13.8%. It also gave a viability, T/C [7] of 61%, a viability, T/C [8] of 49.9% and a viability, T/C [9] of 42.3%. For the same compound, the viability, T/C [10] was 33%, the viability, T/C [11] was 24.9% and the viability, T/C [12] was 15.2%. It also gave a viability, T/C [13] of 56.9%, a viability, T/C [14] of 54% and a viability, T/C [15] of 47.1%. For the same compound, the viability, T/C [16] was 29.7%, the viability, T/C [17] was 26.5% and the viability, T/C [18] was 13.6%. The viability, T/C [19] was 56.2%, the viability, T/C [20] was 44.2% and the viability, T/C [21] was 38.9%. For the same compound, the viability, T/C [22] was 31.4%, the viability, T/C [23] was 23.9% and the viability, T/C [24] was 13.8%. It also gave a viability, T/C [25] of 49.2%, a viability, T/C [26] of 40.2% and a viability, T/C [27] of 41.5%. The viability, T/C [28] was 24.8%, the viability, T/C [29] was 27.5% and the viability, T/C [30] was 14.4%. The viability, T/C [31] was 37.7%, the viability, T/C [32] was 32.6% and the viability, T/C [33] was 33.6%. For the same compound, the viability, T/C [34] was 27.9%, the viability, T/C [35] was 18.2% and the viability, T/C [36] was 4.21%.

With `O=c1[nH]cc(F)c(=O)[nH]1` + Cc1cnc(CNC(=O)c2c(=O)c3ccc(N4CCCN(C)CC4)nc3n3c2sc2ccccc23)cn1 the IC50 (second compound 0.0316 µM) was > 10000 nM, the IC50 (second compound 0.1 µM) was > 10000 nM and the IC50 (second compound 0.316 µM) was > 10000 nM. The IC50 (second compound 1 µM) was > 10000 nM, the IC50 (second compound 3.16 µM) was > 10000 nM and the IC50 (second compound 10 µM) was < 31.6 nM. For the same compound, the viability, T/C [1] was 109%, the viability, T/C [2] was 112% and the viability, T/C [3] was 100%. For the same compound, the viability, T/C [4] was 99.7%, the viability, T/C [5] was 111% and the viability, T/C [6] was 84.7%. The viability, T/C [7] was 100%, the viability, T/C [8] was 84.9% and the viability, T/C [9] was 89.4%. The viability, T/C [10] was 88.5%, the viability, T/C [11] was 104% and the viability, T/C [12] was 87.4%. The viability, T/C [13] was 78.9%, the viability, T/C [14] was 82.8% and the viability, T/C [15] was 69.5%. It also gave a viability, T/C [16] of 72.5%, a viability, T/C [17] of 82.7% and a viability, T/C [18] of 76.7%. It also gave a viability, T/C [19] of 68.2%, a viability, T/C [20] of 66% and a viability, T/C [21] of 71.3%. For the same compound, the viability, T/C [22] was 72.2%, the viability, T/C [23] was 76% and the viability, T/C [24] was 69.9%. For the same compound, the viability, T/C [25] was 54.8%, the viability, T/C [26] was 59.9% and the viability, T/C [27] was 51.3%. The viability, T/C [28] was 49.8%, the viability, T/C [29] was 63.2% and the viability, T/C [30] was 51.4%. It also gave a viability, T/C [31] of 49%, a viability, T/C [32] of 49.6% and a viability, T/C [33] of 49.2%. For the same compound, the viability, T/C [34] was 49.4%, the viability, T/C [35] was 54.7% and the viability, T/C [36] was 47.6%.
